Values joined by “and” are separate entries in the source; they are usually repeats but may differ in a detail not shown here. Equal values may be shown once. Where a name gives a salt, the structure may show the parent alone. Read-outs that look alike come from different tables or passages of the source.

One series relates to dopamine (DA). The series can be described thus: content of dopamine (DA) by ELISA kit. The following applies: Table 5; 10 mg/kg oral; control 171.6 ± 54.5. It counts as in vivo, ICR mice. The method, then: (§1) The antidepressant activity of the drugs was evaluated by classic behavioral measurements, such as the forced swimming test (FST) and tail suspension test (TST). All the ICR mice were randomly divided into several groups (n = 8) as follows: a control group with stimulation and different test groups subjected to FST and TST after the oral administration of different drugs for 8 days, including fluoxetine (10 mg/kg), BZD (3 g/kg), ZD (3 g/kg), Baihe decoction (BD, 3 g/kg), PZ (21.2 mg/kg), XZ (21.2 mg/kg), SZ (21.2 mg/kg), timosaponin BII (10 mg/kg) and timosaponin BIII (10 mg/kg).
(§2) The contents of dopamine (DA) and serotonin (5-HT) in the plasma were determined using ELISA Kits (Shanghai Jianglai Biotech Co., Ltd., Shanghai, China) according to the manufacturer’s instructions.
(An ELISA detects its analyte on a solid surface through an enzyme-linked reagent.)

Series [1] has as its system ICR mice. The series is described as follows: tail suspension test (TST). It counts as in vivo. The protocol: as §1
(§3) The FST was performed according to a previously described method with minor modifications. Briefly, each mouse was individually placed in an open water-filled cylinder (H: 50 cm; Ø: 20 cm; water depth: 35 cm; temperature: 23–25 °C) and allowed to swim for a period of 6 min. The total time of immobility was recorded during the last 4 min of the testing duration. Immobility is defined as the mice floating in the water without movement. The TST was conducted as described in the literature. Briefly, the mice were suspended 20 cm above the floor for 6 min. The time of immobility was recorded after the first 2 min. Mice in a completely motionless state were considered immobile.

The test system of a further series is serotonin (5-HT). The series can be described thus: content of serotonin (5-HT) by ELISA kit. It counts as in vivo, ICR mice. The following applies: Table 5; 10 mg/kg oral; control 636.2 ± 80.1. The method, then: as §1, §2
Series [2] is described as follows: pharmacokinetic study of five major components after oral administration of BZD (HPLC-QQQ MS). The format is in vivo, Sprague–Dawley (SD) rats. The following applies: for Cmax / Tmax / half-life / AUC(0-t): Sprague-Dawley, rat, po, 15 g/kg; for ER (liver extraction ratio): from portal vein plasma and systemic plasma. The method, then:
The HPLC-QQQ MS method was developed according to a previous study in our group. Briefly, five compounds were simultaneously determined in plasma, liver and brain samples using a 1260 Series liquid chromatography system (Agilent Technologies, Palo Alto, CA, USA) coupled to a 6460 triple quadrupole mass spectrometer with an electrospray ionization source (Agilent Technologies, Palo Alto, CA, USA). Chromatographic separation was performed on an ACE Super C18 column (100 mm × 2.1 mm, 3.0 µm, Advanced Chromatography Technologies Ltd. Aberdeen, Scotland) at a temperature of 40 °C. The mobile phase consisted of water containing 0.1% formic acid (A) and acetonitrile containing 0.1% formic acid (B). The gradient program was performed as follows: 0–3 min, 92% A; 3.5–4.0 min, 88–60% A; 5.5–6 min, 60–55% A; 6.6–7 min, 55–5% A; 11–11.01 min, 5–92% A; 11.01–13.5 min, 92% A. The flow rate was set to 0.35 mL/min in the time range of 0–6.6 min and kept at 0.45 mL/min between 7 and 13.5 min. Five components were monitored in negative multiple reaction monitoring (MRM) mode. The parameters of the mass spectrometer were as follows: capillary voltage, 3500 V; nebulizer, 45 psi; gas temperature, 350 °C; gas flow rate, 12 L/min; sheath gas temperature, 400 °C; sheath gas flow rate, 8 L/min. MassHunter Workstation software (Agilent Technologies, Palo Alto, CA, USA) was used for system operation and data analysis.
All Sprague–Dawley (SD) rats and ICR mice were purchased from Shanghai SLAC Laboratory Animal Co., Ltd. and kept in the breeding room at 22 ± 2 °C and 50 ± 10% humidity in Shanghai Institute of Materia Medica (SIMM). The experimental protocols were approved by the Institutional Animal Care and Use Committee in SIMM. After 1 week of acclimation, all the SD rats were orally administered BZD (15 g/kg). The biological samples were collected from the rats after fasting for 12 h. After anaesthetization, the rats were dissected at 5 min, 15 min, 30 min, 1 h, 2 h, 4 h, 7 h, 10 h, 20 h and 40 h (n = 5 for each time-point). The hepatic portal vein plasma (2 mL) and the systemic plasma (6–8 mL) were subsequently harvested, and finally the liver and brain tissue samples were collected. The plasma sample were centrifuged at 9500×g for 5 min, and the tissue samples were washed with saline solution. All samples were stored at − 80 °C until analysis. The samples were prepared according to the method described in the previous study by our group.
A noncompartmental analysis was carried out using WinNonlin software (Pharsight 6.2, NC, USA) to calculate the PK parameters. The significance of the results in behavior assessment was analyzed by unpaired Student’s t-tests. A P value less than 0.05 was considered significant. The liver extraction ratio (ER) indicated the fraction of hepatic clearance and first-pass effect, and the calculation formula was as reported in a previous study by our group.

The test system of another series is depressive rats. The following applies: depressive rats; likely related to the content of 5-HT in the brain; cited from earlier work.
In series [3] the test system is ICR mice. The series can be described thus: forced swimming test (FST). The format is in vivo. The method, then:
as §1, §3

[4] abbreviates: Table 4, oral administration for 8 days, n = 8, 10 mg/kg, control 102.0 ± 16.9.
[5] abbreviates: hepatic portal vein plasma, portal vein plasma, rats, oral BZD 15 g/kg, n = 5.
[6] abbreviates: hepatic portal vein plasma, portal vein plasma, rats, oral BZD 15 g/kg, n = 5, read-out: AUC0–t.
Setting [7] is: hepatic portal vein plasma, portal vein plasma, rats, oral BZD 15 g/kg, n = 5, read-out: Cmax.
Where [8] appears, read: hepatic portal vein plasma, portal vein plasma, rats, oral BZD 15 g/kg, n = 5, read-out: Tmax.
Setting [9] is: liver, liver, rats, oral BZD 15 g/kg, n = 5, read-out: Cmax.
Setting [10] is: liver, liver, rats, oral BZD 15 g/kg, n = 5, read-out: Tmax.
The mark [11] stands for this setting: liver, rats, oral BZD 15 g/kg, n = 5.
The mark [12] stands for this setting: systemic plasma, systemic plasma, rats, oral BZD 15 g/kg, n = 5, read-out: AUC0–t.
Setting [13] is: systemic plasma, systemic plasma, rats, oral BZD 15 g/kg, n = 5, read-out: Cmax.
[14] abbreviates: systemic plasma, systemic plasma, rats, oral BZD 15 g/kg, n = 5, read-out: Tmax.
Where [15] appears, read: systemic plasma, rats, oral BZD 15 g/kg, n = 5.
Where [16] appears, read: Table 4, oral administration for 8 days, n = 8, 10 mg/kg, control 118.1 ± 24.3.

For orientation: Cmax means the maximum level reached in the sampled fluid or tissue. For orientation: Tmax means the time from dosing to the highest level. As usually defined, the half-life is the time in which the quantity being followed falls by half. A higher half-life goes with slow loss. Turning to `C[C@@H](CC[C@@]1(O)O[C@H]2C[C@H]3[C@@H]4CC[C@@H]5C[C@@H](O[C@@H]6O[C@H](CO)[C@H](O)[C@H](O)[C@H]6O[C@@H]6O[C@H](CO)[C@@H](O)[C@H](O)[C@H]6O)CC[C@]5(C)[C@H]4CC[C@]3(C)[C@H]2[C@@H]1C)CO[C@@H]1O[C@H](CO)[C@@H](O)[C@H](O)[C@H]1O` [Timosaponin BII, timosaponin BII], the “Content (ng/g) DA” value in the series with dopamine (DA) stood at 196.9 ± 56.7 ng/g. The “Immobility time (mean ± SD, s) TST” value in the series on ICR mice [1] (setting [4]) is 48.2 ± 23.1 s. In addition, the “Content (ng/g) 5-HT” value in the series on serotonin (5-HT) came to 716.5 ± 90.4 ng/g. For the same compound, the Cmax is 1170 ± 93.4 ng/g in series [2] (cerebellum, cerebellum, rats, oral BZD 15 g/kg, n = 5, read-out: Cmax); 880 ± 160 ng/mL in series [2] (setting [7]); 372 ± 154 ng/g in series [2] (hippocampus, hippocampus, rats, oral BZD 15 g/kg, n = 5, read-out: Cmax); 302 ± 102 ng/g in series [2] (setting [9]); 277 ± 48.4 ng/mL in series [2] (setting [13]). The Tmax in series [2] (cerebellum, cerebellum, rats, oral BZD 15 g/kg, n = 5, read-out: Tmax) stood at 0.25 h; in series [2] (setting [8]), 0.25 h; in series [2] (hippocampus, hippocampus, rats, oral BZD 15 g/kg, n = 5, read-out: Tmax) it was 10 h; in series [2] (setting [10]), 0.08 h; in series [2] (setting [14]) it was 0.25 h. In addition, the half-life in series [2] (cerebellum, rats, oral BZD 15 g/kg, n = 5) is 16.2 h; in series [2] (setting [5]), 119 h; in series [2] (hippocampus, rats, oral BZD 15 g/kg, n = 5), 27.4 h; in series [2] (setting [11]) it was 116 h; in series [2] (setting [15]) it was 35.8 h. Moreover, the AUC(0-t) in series [2] (setting [6]) was 1090 ± 184 ng·h/mL; in series [2] (setting [12]), 976 ± 254 ng·h/mL. Moreover, the “ER (liver extraction ratio)” value in series [2] (rats, oral BZD 15 g/kg) came out at 10.88%; in series [2] (rats, oral BZD 15 g/kg, listed as timosaponin BII), 10.88%. In the series on depressive rats, the antidepressant effect entry is “significant antidepressant effect”. In addition, the “Immobility time (mean ± SD, s) FST” value in the series on ICR mice [3] (setting [16]) is listed as 72.1 ± 19.6 s.
Consider `CNCCC(Oc1ccc(C(F)(F)F)cc1)c1ccccc1` (stereo not shown) [Fluoxetine, fluoxetine hydrochloride], for which, in the series with dopamine (DA), the “Content (ng/g) DA” value came to 215.9 ± 36.5 ng/g. In addition, the “Immobility time (mean ± SD, s) TST” value with ICR mice [1] (Table 1, oral administration for 8 days, n = 8, fluoxetine 10 mg/kg, BZD, ZD, BD 3 g/kg, control 109.1 ± 15.5) worked out at 62.0 ± 36.2 s; in the series with ICR mice [1] (Table 2, oral administration for 8 days, n = 8, fluoxetine 10 mg/kg, SZ, PZ, XZ 21.2 mg/kg, control 118.6 ± 18.1) it was 69.5 ± 21.5 s; in the series with ICR mice [1] (setting [4]), 50.0 ± 22.2 s. For the same compound, the “Content (ng/g) 5-HT” value in the series with serotonin (5-HT) is given as 731.3 ± 104.6 ng/g. Further, the “Immobility time (mean ± SD, s) FST” value in the series on ICR mice [3] (Table 1, oral administration for 8 days, n = 8, fluoxetine 10 mg/kg, BZD, ZD, BD 3 g/kg, control 127.6 ± 40.9) was 84.8 ± 15.2 s; with ICR mice [3] (Table 2, oral administration for 8 days, n = 8, fluoxetine 10 mg/kg, SZ, PZ, XZ 21.2 mg/kg, control 134.3 ± 22.1), 82.0 ± 21.3 s; in the series on ICR mice [3] (setting [16]) it was 70.2 ± 21.2 s.
For the compound `O=c1c2cc(O)c(O)cc2oc2cc(O)c([C@@H]3O[C@H](CO)[C@@H](O)[C@H](O)[C@H]3O)c(O)c12` [Mangiferin, mangiferin], in series [2] (in vivo), the Cmax is 889.36 ± 191.49 ng/mL and the time of peak concentration (Tmax) was 1.00 h. The AUC(0-t) in series [2] (in vivo, AUC0–t) is 4020 ± 397 ng·h/mL. Besides, the Cmax in series [2] (in vivo, Cmax) was 131 ng/g and 1760 ng/mL.
On to `C[C@H]1CC[C@@]2(OC1)O[C@H]1C[C@H]3[C@@H]4CC[C@@H]5C[C@@H](O[C@@H]6O[C@H](CO)[C@H](O)[C@H](O)[C@H]6O[C@@H]6O[C@H](CO)[C@@H](O)[C@H](O)[C@H]6O)CC[C@]5(C)[C@H]4CC[C@]3(C)[C@H]1[C@@H]2C` [Timosaponin AIII, timosaponin AIII], for which the half-life in series [2] (setting [5]) was 10.3 h; in series [2] (setting [11]), 12.2 h; in series [2] (setting [15]), 11.2 h. Also, the figures for the AUC(0-t) in series [2] (setting [6]) and in series [2] (setting [12]) were 583 ± 105 ng·h/mL and 156 ± 21.6 ng·h/mL, respectively. The Cmax in series [2] (setting [7]) was 61.8 ± 25.6 ng/mL; in series [2] (setting [9]), 9360 ± 244 ng/g; in series [2] (setting [13]) it was 16 ± 5.16 ng/mL. For the same compound, the Tmax in series [2] (setting [8]) amounted to 4 h; in series [2] (setting [10]) it was 20 h; in series [2] (setting [14]), 4 h. Moreover, the “ER (liver extraction ratio)” value in series [2] (rats, oral BZD 15 g/kg) stood at 73.20%; in series [2] (rats, oral BZD 15 g/kg, listed as timosaponin AIII), 73.21%.
